Here are results for two compounds from ChEMBL document CHEMBL1157712, “Hit to lead account of the discovery of bisbenzamide and related ureidobenzamide inhibitors of Rho kinase” (J Med Chem, 2010).

In data set [1] the target is Tyrosine-protein kinase CSK (Homo sapiens) (UniProt P41240). Conditions: 3 to 6 uM; call rule not given here.
The target in data set [2] is Mitogen-activated protein kinase kinase kinase 11 (Homo sapiens, UniProt Q16584). Put plainly: Inhibition of MAP3K11.
The target in data set [3] is Ribosomal protein S6 kinase beta-1 (Homo sapiens) (UniProt P23443). Conditions: 3 to 6 uM.
Description: Inhibition of S6K1 at 3 to 6 uM relative to control
For data set [4], the target named is Death-associated protein kinase 1 (Homo sapiens) (UniProt P53355). The settings on record: 3 to 6 uM.
Description: Inhibition of DAPK1 at 3 to 6 uM relative to control
Data set [5] addresses Voltage-gated inwardly rectifying potassium channel KCNH2 (Homo sapiens, UniProt Q12809). Put plainly: Inhibition of human ERG potassium channel up to 70 uM.
Data set [6] deals with Casein kinase I isoform alpha (Homo sapiens) (UniProt P48729). The settings on record: 3 to 6 uM.
Description: Inhibition of CK1 at 3 to 6 uM relative to control
For data set [7], the target named is Serine/threonine-protein kinase Chk2 (Homo sapiens) (UniProt O96017). Conditions: 3 to 6 uM.
Description: Inhibition of CHK2 at 3 to 6 uM relative to control
Data set [8] concerns the target Glycogen synthase kinase-3 beta (Homo sapiens) (UniProt P49841). The settings on record: 3 to 6 uM.
Description: Inhibition of GSK3-beta at 3 to 6 uM relative to control
Data set [9] addresses Insulin-like growth factor 1 receptor (Homo sapiens) (UniProt P08069). The settings on record: 3 to 6 uM.
Description: Inhibition of IGF1R at 3 to 6 uM relative to control
Data set [10] has as its target Epithelial discoidin domain-containing receptor 1 (Homo sapiens) (UniProt Q08345). Conditions: 3 to 6 uM.
Description: Inhibition of DDR1 at 3 to 6 uM relative to control
The target of data set [11] is Myotonin-protein kinase (Homo sapiens) (UniProt Q09013). The settings on record: 3 to 6 uM.
Description: Inhibition of DMPK at 3 to 6 uM relative to control
For data set [12], the target named is Myosin light chain kinase, smooth muscle (Homo sapiens) (UniProt Q15746). Conditions: 3 to 6 uM.
Description: Inhibition of SMMLCK at 3 to 6 uM relative to control
For data set [13], the target named is MAP/microtubule affinity-regulating kinase 3 (Homo sapiens) (UniProt P27448). Conditions: 3 to 6 uM.
Description: Inhibition of MARK3 at 3 to 6 uM relative to control
The target of data set [14] is Leucine-rich repeat serine/threonine-protein kinase 2 (Homo sapiens) (UniProt Q5S007). The settings on record: 3 to 6 uM.
Description: Inhibition of LRRK2 at 3 to 6 uM relative to control
Another data set has as its target Caspase-1 (Homo sapiens) (UniProt P29466). The settings on record: 3 to 6 uM.
The target in data set [15] is Serine/threonine-protein kinase mTOR (Homo sapiens) (UniProt P42345). Conditions: 3 to 6 uM.
Description: Inhibition of mTOR at 3 to 6 uM relative to control
Data set [16] has as its target Protein kinase C alpha type (Homo sapiens) (UniProt P17252). The settings on record: 3 to 6 uM.
Description: Inhibition of PKCalpha at 3 to 6 uM relative to control
Data set [17] has as its target Proto-oncogene tyrosine-protein kinase Src (Homo sapiens) (UniProt P12931). Conditions: 3 to 6 uM.
Description: Inhibition of SRC at 3 to 6 uM relative to control
The target in data set [18] is Serine/threonine-protein kinase Sgk1 (Homo sapiens) (UniProt O00141). Conditions: 3 to 6 uM.
Description: Inhibition of SGK at 3 to 6 uM relative to control
The target in data set [19] is MAP kinase-interacting serine/threonine-protein kinase 1 (Homo sapiens) (UniProt Q9BUB5). The settings on record: 3 to 6 uM.
Description: Inhibition of MNK1 at 3 to 6 uM relative to control
Data set [20] is described as follows: Permeability from basolateral to apical side in human Caco-2 cells. It is filed as ADME, cell-based. The settings on record: read-out: permeability. (In general: Caco-2 cells form a polarised layer with tight junctions and transporters.)
Data set [21] addresses Vascular endothelial growth factor receptor 1 (Homo sapiens, UniProt P17948). Put plainly: Inhibition of VEGFR1.
The target of data set [22] is SRSF protein kinase 1 (Homo sapiens) (UniProt Q96SB4). The settings on record: 3 to 6 uM.
Description: Inhibition of SRPK1 at 3 to 6 uM relative to control
Data set [23] has as its target Serine/threonine-protein kinase N2 (Homo sapiens, UniProt Q16513). In words: Inhibition of PRK2; values are per cent of control.
Data set [24] deals with Ribosomal protein S6 kinase beta-1 (Homo sapiens) (UniProt P23443). In words: Inhibition of S6K1 at 3 uM relative to control; values are per cent of control.
Data set [25] addresses Eukaryotic elongation factor 2 kinase (Homo sapiens) (UniProt O00418). In words: Inhibition of EF2K at 3 uM relative to control; values are per cent of control.
Data set [26] has as its target MAP kinase-activated protein kinase 3 (Homo sapiens) (UniProt Q16644). Put plainly: Inhibition of MAPKAPK3 at 3 uM relative to control; values are per cent of control.
A short description of data set [27]: Inhibition of PKBD at 3 uM relative to control; values are per cent of control.
Data set [28] has as its target Serine/threonine-protein kinase Nek6 (Homo sapiens) (UniProt Q9HC98). In words: Inhibition of NEK6 at 3 uM relative to control; values are per cent of control.
For data set [29], the target named is Serine/threonine-protein kinase MRCK beta (Homo sapiens) (UniProt Q9Y5S2). Put plainly: Inhibition of CDC42BPB.
The target of data set [30] is Serine/threonine-protein kinase 3 (Homo sapiens) (UniProt Q13188). In words: Inhibition of MST2 at 3 uM relative to control; values are per cent of control.
The target of data set [31] is Serine/threonine-protein kinase Nek2 (Homo sapiens) (UniProt P51955). In words: Inhibition of NEK2a at 3 uM relative to control; values are per cent of control.
Data set [32] addresses Cyclin-dependent kinase 2 (Homo sapiens) (UniProt P24941). In words: Inhibition of CDK2 at 3 uM relative to control; values are per cent of control.
The test system of another data set is ROCK1 (Homo sapiens). Put plainly: Inhibition of ROCK1.
The target of data set [33] is MAP kinase-interacting serine/threonine-protein kinase 1 (Homo sapiens) (UniProt Q9BUB5). In words: Inhibition of MNK1 at 3 uM relative to control; values are per cent of control.
The target in data set [34] is SRSF protein kinase 1 (Homo sapiens) (UniProt Q96SB4). Put plainly: Inhibition of SRPK1 at 3 uM relative to control; values are per cent of control.
Data set [35] addresses Ribosomal protein S6 kinase alpha-1 (Homo sapiens) (UniProt Q15418). Put plainly: Inhibition of MAPKAPK1A at 3 uM relative to control; values are per cent of control.
In data set [36] the target is MAP/microtubule affinity-regulating kinase 3 (Homo sapiens) (UniProt P27448). In words: Inhibition of MARK3 at 3 uM relative to control; values are per cent of control.
A short description of data set [37]: Inhibition of AMPK at 3 uM relative to control; values are per cent of control.
Data set [38] addresses Mitogen-activated protein kinase 10 (Homo sapiens) (UniProt P53779). In words: Inhibition of JNK3a1 at 3 uM relative to control; values are per cent of control.

Structures are written as SMILES.

MAP/microtubule affinity-regulating kinase 3 (Homo sapiens), sequence (P27448 whole entry, looked up): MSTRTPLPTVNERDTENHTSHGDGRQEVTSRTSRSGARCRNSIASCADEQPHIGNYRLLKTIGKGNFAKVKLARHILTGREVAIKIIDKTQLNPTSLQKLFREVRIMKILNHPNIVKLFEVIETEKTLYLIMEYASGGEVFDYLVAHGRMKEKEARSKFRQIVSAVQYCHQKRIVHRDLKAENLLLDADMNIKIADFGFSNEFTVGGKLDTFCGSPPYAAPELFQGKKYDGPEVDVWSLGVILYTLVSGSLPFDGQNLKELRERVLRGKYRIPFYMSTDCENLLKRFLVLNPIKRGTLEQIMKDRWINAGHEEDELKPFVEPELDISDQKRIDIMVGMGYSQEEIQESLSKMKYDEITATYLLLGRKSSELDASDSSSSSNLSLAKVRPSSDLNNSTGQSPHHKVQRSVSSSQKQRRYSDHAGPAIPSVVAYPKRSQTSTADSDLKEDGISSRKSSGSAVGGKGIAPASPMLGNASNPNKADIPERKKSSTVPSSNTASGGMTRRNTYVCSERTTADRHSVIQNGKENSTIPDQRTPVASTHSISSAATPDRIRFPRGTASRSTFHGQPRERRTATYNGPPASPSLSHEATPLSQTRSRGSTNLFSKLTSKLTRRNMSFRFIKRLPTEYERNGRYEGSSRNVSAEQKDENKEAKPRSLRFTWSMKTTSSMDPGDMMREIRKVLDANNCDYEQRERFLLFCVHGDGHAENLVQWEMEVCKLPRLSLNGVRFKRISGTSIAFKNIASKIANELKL
MAP kinase-interacting serine/threonine-protein kinase 1 (Homo sapiens), sequence (Q9BUB5 whole entry, looked up): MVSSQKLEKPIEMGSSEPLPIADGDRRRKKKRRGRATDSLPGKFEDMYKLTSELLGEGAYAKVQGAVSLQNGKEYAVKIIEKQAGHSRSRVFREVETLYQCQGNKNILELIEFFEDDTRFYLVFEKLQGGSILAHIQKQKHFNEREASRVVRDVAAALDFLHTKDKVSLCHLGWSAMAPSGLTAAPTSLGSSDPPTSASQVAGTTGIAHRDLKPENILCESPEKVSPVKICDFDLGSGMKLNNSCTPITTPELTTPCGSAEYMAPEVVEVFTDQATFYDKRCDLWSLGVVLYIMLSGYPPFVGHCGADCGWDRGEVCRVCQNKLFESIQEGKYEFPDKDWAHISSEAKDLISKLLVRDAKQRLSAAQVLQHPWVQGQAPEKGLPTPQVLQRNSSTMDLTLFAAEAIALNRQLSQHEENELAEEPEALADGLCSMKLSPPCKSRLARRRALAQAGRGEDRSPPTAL
SRSF protein kinase 1 (Homo sapiens), sequence (Q96SB4 whole entry): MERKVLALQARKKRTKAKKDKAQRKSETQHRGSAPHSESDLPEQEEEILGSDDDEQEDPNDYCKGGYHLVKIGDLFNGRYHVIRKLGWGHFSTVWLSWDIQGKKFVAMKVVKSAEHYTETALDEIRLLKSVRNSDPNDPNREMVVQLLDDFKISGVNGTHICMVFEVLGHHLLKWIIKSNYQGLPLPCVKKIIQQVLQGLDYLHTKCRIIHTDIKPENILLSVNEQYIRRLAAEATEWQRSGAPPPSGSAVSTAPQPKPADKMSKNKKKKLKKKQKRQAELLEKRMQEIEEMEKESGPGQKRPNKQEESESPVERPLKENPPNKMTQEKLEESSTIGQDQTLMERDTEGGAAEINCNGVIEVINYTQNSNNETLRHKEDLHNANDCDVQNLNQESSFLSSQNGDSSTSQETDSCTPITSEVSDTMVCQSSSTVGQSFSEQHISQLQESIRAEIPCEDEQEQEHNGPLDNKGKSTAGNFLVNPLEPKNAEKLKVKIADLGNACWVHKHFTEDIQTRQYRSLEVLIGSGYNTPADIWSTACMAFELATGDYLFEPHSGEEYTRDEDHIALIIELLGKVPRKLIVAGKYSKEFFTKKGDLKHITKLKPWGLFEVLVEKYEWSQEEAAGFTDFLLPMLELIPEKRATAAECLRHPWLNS
Ribosomal protein S6 kinase beta-1 (Homo sapiens), sequence (P23443 whole entry, looked up): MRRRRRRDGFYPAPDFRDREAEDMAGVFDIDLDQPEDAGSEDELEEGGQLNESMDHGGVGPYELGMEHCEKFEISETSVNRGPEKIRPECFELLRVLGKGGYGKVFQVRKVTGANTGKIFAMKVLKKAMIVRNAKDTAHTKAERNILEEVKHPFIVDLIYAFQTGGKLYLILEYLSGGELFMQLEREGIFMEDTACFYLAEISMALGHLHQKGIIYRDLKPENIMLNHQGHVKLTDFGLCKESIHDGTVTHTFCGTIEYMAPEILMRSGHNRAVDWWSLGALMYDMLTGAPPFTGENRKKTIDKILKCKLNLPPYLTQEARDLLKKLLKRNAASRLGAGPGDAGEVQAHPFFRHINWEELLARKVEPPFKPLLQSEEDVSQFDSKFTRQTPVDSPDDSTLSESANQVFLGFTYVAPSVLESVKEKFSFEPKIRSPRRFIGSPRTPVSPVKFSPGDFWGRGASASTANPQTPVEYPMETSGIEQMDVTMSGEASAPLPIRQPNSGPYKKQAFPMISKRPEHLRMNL
Serine/threonine-protein kinase 3 (Homo sapiens), sequence (Q13188 whole entry): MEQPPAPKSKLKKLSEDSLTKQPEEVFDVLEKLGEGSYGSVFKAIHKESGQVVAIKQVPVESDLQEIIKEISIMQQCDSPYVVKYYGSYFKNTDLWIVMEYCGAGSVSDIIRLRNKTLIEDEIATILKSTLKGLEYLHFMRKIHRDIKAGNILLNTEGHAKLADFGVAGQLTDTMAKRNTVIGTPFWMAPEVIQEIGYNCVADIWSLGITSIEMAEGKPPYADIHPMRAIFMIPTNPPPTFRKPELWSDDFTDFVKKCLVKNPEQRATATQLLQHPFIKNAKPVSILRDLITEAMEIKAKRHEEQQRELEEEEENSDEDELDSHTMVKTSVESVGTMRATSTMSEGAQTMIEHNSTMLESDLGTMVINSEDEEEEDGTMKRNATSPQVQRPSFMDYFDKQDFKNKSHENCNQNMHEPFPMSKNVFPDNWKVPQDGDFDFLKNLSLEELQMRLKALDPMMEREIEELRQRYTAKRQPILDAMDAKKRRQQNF
Serine/threonine-protein kinase Sgk1 (Homo sapiens), sequence (O00141 whole entry): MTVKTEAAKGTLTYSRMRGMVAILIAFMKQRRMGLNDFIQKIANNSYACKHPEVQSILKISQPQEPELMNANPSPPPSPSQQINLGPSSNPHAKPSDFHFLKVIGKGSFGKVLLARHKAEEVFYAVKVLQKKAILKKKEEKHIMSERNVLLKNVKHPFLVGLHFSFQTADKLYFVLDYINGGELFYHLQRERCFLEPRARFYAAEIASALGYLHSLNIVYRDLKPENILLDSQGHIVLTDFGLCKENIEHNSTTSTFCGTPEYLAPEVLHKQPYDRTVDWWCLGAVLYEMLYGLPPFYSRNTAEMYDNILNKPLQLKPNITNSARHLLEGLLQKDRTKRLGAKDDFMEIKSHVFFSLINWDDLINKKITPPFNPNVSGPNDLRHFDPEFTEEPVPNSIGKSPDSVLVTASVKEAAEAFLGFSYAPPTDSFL
Epithelial discoidin domain-containing receptor 1 (Homo sapiens), sequence (Q08345 whole entry, the tested form may be a part): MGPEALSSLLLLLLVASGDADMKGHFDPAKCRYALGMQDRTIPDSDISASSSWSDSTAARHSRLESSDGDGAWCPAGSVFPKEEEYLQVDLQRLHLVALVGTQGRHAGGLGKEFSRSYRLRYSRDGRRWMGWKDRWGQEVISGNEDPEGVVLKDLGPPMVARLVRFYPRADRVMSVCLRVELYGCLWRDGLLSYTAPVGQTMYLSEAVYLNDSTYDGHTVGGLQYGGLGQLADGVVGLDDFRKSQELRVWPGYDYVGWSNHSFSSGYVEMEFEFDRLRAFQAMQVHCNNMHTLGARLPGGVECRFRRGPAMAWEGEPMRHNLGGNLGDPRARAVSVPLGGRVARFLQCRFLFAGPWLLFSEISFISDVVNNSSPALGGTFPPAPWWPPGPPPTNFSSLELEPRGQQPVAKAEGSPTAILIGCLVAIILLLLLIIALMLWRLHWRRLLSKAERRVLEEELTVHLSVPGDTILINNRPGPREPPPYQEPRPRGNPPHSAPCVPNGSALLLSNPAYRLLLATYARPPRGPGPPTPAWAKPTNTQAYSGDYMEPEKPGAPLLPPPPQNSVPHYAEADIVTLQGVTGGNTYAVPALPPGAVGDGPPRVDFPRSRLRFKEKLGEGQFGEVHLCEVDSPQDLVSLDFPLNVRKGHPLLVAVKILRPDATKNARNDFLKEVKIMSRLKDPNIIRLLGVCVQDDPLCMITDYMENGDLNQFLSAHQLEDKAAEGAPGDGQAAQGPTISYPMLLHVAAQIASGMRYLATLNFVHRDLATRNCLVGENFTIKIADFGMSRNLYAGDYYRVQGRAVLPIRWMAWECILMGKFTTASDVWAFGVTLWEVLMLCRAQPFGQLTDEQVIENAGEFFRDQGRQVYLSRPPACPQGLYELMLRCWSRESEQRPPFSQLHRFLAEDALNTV
Description for Caspase-1 (Homo sapiens): Inhibition of ICE at 3 to 6 uM relative to control

As a reminder, the IC50 is the concentration at which inhibition is half-maximal. Take `COc1ccc(C(=O)NCc2cccc(C(=O)Nc3ccc4c(c3)CNCC4)c2)cc1OC`: the residual activity in data set [1], in data set [3], in data set [4], in data set [6], in data set [7] and in data set [8] was above 50% in each case. Moreover, the residual activity in [9], in data set [10], in data set [11], in [12], in [13] and in data set [14] was above 50% in each case. Also, the residual activity (on Caspase-1 (Homo sapiens); in [15]; in [16]; in data set [17]; in [18]; in data set [19]) was above 50% throughout. The compound also showed a residual activity in data set [22] above 50%. Also, the IC50 in data set [2] and in [21] was above 10 µM each time. The “inhibition (INH)” value in [5] is listed as “Not Active”. Also, the Papp B→A in data set [20] stood at 54 nm/s.

For the compound `NC(=O)c1ccc(NC(=O)NCc2cccc(C(=O)Nc3ccc4c(c3)CNCC4)c2)cc1`, the residual activity is 33% in [23]; above 50% in data set [24]; above 50% in data set [25]; above 50% in [26]; above 50% in [27]; above 50% in [28]. In addition, the residual activity in data set [30], in data set [31], in data set [32], in data set [33], in data set [34] and in data set [35] was above 50% throughout. Further, the residual activity in data set [36], in data set [37] and in [38] was above 50% in each case. For the same compound, the IC50 was above 5 µM in [29] and 0.006 µM with ROCK1 (Homo sapiens).
